What was measured:
Vero E6 [1] = assay: CPE rescue EC50 (SARS-CoV-2 infected Vero E6); higher = less potent antiviral; conditions: virus: SARS-CoV-2 USA_WA1/2020, MOI 0.002; 72 h
Experimental: (§1)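 Read-out is CellTiter-Glo ATP luminescence, normalised to DMSO-only wells (0% rescue) and no-virus wells (100% rescue). The cytotoxicity counter-assay used the same protocol without virus, normalised to DMSO (100% viability) and hyamine (0% viability). Confirmation used 8-point 1:3 titrations in duplicate, fitted to a four-parameter Hill equation.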

Vero E6 [2] = assay: cytotoxicity maximal efficacy (% viability loss, DMSO = 0%, hyamine = 100%); higher = more cytotoxic; conditions: virus: none (uninfected); 72 h
Experimental: as §1

Vero E6 [3] = assay: cytotoxicity CC50 (uninfected Vero E6, ATP content); higher = less cytotoxic; conditions: virus: none (uninfected); 72 h
Experimental: as §1

SMILES	CPE rescue EC50 (Vero E6 [1]) [nM]	cytotoxicity maximal efficacy (Vero E6 [2]) [%]	cytotoxicity CC50 (Vero E6 [3]) [nM]
C(=N\Nc1nc(Nc2ccccc2)nc(N2CCOCC2)n1)/c1c[nH]c2ccccc12	113	–	–
O=S(=O)(Cc1ccccc1)Nc1ccc(-c2ccc3c(cnn3-c3ccc(F)cc3)c2)c(C(F)(F)F)c1	–	24.3	14100
CC1(C)CC(=O)c2c(C(F)(F)F)nn(-c3ccc(C(N)=O)c(N[C@H]4CC[C@H](OC(=O)CN)CC4)c3)c2C1	–	–	562
C[C@@H]1O[C@@H](O[C@H]2[C@H](OC(=O)[C@]34CCC(C)(C)C[C@H]3C3=CCC5[C@@]6(C)CC[C@H](O[C@@H]7O[C@H](CO[C@@H]8OC[C@H](O)[C@H](O)[C@H]8O)[C@@H](O)[C@H](O)[C@H]7O)C(C)(C)C6CC[C@@]5(C)[C@]3(C)C[C@H]4O)OC[C@@H](O)[C@@H]2O)[C@H](O)[C@H](O[C@@H]2OC[C@](O)(CO)[C@H]2O)[C@H]1O[C@@H]1OC[C@H](O)[C@H](O[C@@H]2OC[C@@H](O)[C@H](O)[C@H]2O)[C@H]1O (stereo partly specified)	955	–	–
COc1ccc(-c2csc(NC(=O)[C@H]3CCCCN3S(=O)(=O)c3ccc(C)cc3)n2)cc1	–	–	2000
c1ccc2c(-c3cnn4cc(-c5ccc(OCCN6CCOCC6)cc5)cnc34)ccnc2c1	–	29.1	5520
COCCN1CCN(Cc2ccc(-c3n[nH]c4c3C(=O)c3c(NC(=O)NN5CCOCC5)cccc3-4)cc2)CC1	–	–	316
CC(C)C[C@H](NC(=O)[C@H](Cc1ccccc1)NC(=O)OCc1ccccc1)C(=O)C=O	–	33.4	11200
N#Cc1ccc(O[C@@H]2c3ccccc3C[C@H]2N2CCC[C@@H](N)C2)c(Cl)c1	–	52.9	12600
CCC[C@@H](C=O)NC(=O)[C@H](CC(C)C)NC(=O)[C@H](CC(C)C)NC(=O)OCc1ccccc1	–	115	1130
CC(C)[C@H]1C(=O)N[C@H](CO)Cc2c[nH]c3cccc(c23)N1C	–	20.4	1240
C[C@@H]1O[C@@H](O[C@H]2[C@H](OC(=O)[C@]34CCC(C)(C)C[C@H]3C3=CCC5[C@@]6(C)CC[C@H](O[C@@H]7O[C@H](CO[C@@H]8OC[C@H](O)[C@H](O)[C@H]8O)[C@@H](O)[C@H](O)[C@H]7O)C(C)(C)C6CC[C@@]5(C)[C@]3(C)C[C@H]4O)OC[C@@H](O)[C@@H]2O)[C@H](O)[C@H](O)[C@H]1O[C@@H]1OC[C@H](O)[C@H](O[C@@H]2OC[C@@H](O)[C@H](O)[C@H]2O)[C@H]1O (stereo partly specified)	602	–	–
CC(C)(C[C@@](O)(Cc1cc2ccncc2[nH]1)C(F)(F)F)c1cc(F)ccc1O	–	22.4	15800
OCCCNc1cc(-c2ccnc(Nc3cccc(Cl)c3)n2)ccn1	–	–	112
O=C(c1ccc(-c2ccc(Cl)cc2)o1)N(Cc1ccccn1)c1ccc(N2CCNCC2)cc1	–	95.2	11200
CC(C)(N)c1ccc(-c2nc3ccccc3nc2-c2ccccc2)cc1	–	34.2	12600
CCC(C)C(=O)OC12C(OC(C)=O)C(C)C3(O)C(C=C(CO)CC4(O)C(=O)C(C)=CC43)C1C2(C)C (stereo unspecified)	982	–	–
O=C(O)c1ccc(CCCc2ccc(OCCc3ccc(F)cc3)cc2)o1	141	–	–
CO/C1=C\C(C)=C\[C@@H](C)[C@@H](O)[C@@H](C)C/C(C)=C/C=C\[C@H](OC)C([C@@H](C)[C@@H](O)[C@H](C)[C@@]2(O)C[C@@H](O)[C@H](C)C(C(C)C)O2)OC1=O (stereo partly specified)	–	–	101
C[C@@H]1O[C@@H](O[C@@H]2[C@@H](O)[C@H](O[C@@H]3[C@@H](O)[C@@H](O)[C@H](O[C@H]4[C@H](OC(=O)[C@]56CCC(C)(C)C[C@H]5C5=CCC7[C@@]8(C)C[C@H](O)[C@H](O[C@@H]9O[C@@H](C)[C@H](O)[C@@H](O)[C@H]9O)[C@@](C)(CO)C8CC[C@@]7(C)[C@]5(C)C[C@H]6O)O[C@H](C)[C@H](O)[C@@H]4O)O[C@H]3C)OC[C@H]2O)[C@H](O)[C@H](O)[C@H]1O (stereo partly specified)	851	–	–
CC(=O)OC[C@]12C[C@H](OC(=O)CC(C)C)C(C)=C[C@H]1O[C@@H]1[C@H](O)[C@@H](O)[C@@]2(C)[C@]12CO2	–	–	127
C/C=C(\C)C(=O)OC1C(C)C2(O)C3C=C(C)C(=O)C3CC(CO)=CC2C2C(C)(C)C12OC(C)=O (stereo unspecified)	–	–	348
C/C(=N\Nc1nnc2c(n1)[nH]c1c(C)cccc12)c1ccccn1	–	76.3	355
O[C@H]1[C@H]2c3cc4c(cc3CN3CCC(=C[C@@H]1O)[C@H]23)OCO4	631	–	–

SMILES	CPE rescue EC50 (Vero E6 [1]) [nM]	cytotoxicity maximal efficacy (Vero E6 [2]) [%]	cytotoxicity CC50 (Vero E6 [3]) [nM]
c1ccc(-c2ccc(CNc3nc(-c4ccccn4)nnc3-c3ccccc3)cc2)cc1	631	–	562
COc1ccc2c(Oc3ccc(NC(=O)c4c(C)n(CC(C)(C)O)n(-c5ccccc5)c4=O)cc3F)ccnc2c1	–	70.3	14100
O=c1cc(-c2cccc3c2Sc2ccccc2S3)oc(N2CCOCC2)c1	–	42.6	10000
CC(C)C(=O)O[C@H]1[C@@H]2[C@H](C)C(=O)O[C@@H]2C[C@@H](C)[C@@H]2C=CC(=O)[C@]21C	–	34.2	12600
CC(=O)c1c(OCCN2CCCCC2)c(OCCC(C)c2ccc(F)cc2)c2oc(C)nc2c1C (stereo unspecified)	–	33.2	14100
Cn1cc(S(=O)(=O)c2ccc(Cl)cc2)c2cccc(N3CCNCC3)c21	–	48.3	11200
COC(=O)[C@@]12OC[C@]34[C@H]([C@@H](O)[C@@H]1O)[C@@]1(C)CC(=O)C(O)=C(C)[C@@H]1C[C@H]3OC(=O)[C@H](OC(=O)/C=C(\C)C(C)C)[C@@H]24	–	–	142
OC1CCC(Oc2cccc3cnc(Nc4ccc5nc[nH]c5c4)nc23)CC1 (stereo unspecified)	–	50.5	891
CC(=NNC(=S)N1CCC1)c1ccccn1	–	–	355
Cn1c(Nc2ccc(C(F)(F)F)cc2)nc2cc(Oc3ccnc(-c4ncc(C(F)(F)F)[nH]4)c3)ccc21	794	–	316
O=S(=O)(NCC1CC1)c1ccc(Nc2nccc(N3CCCc4cc(O)ccc43)n2)cc1	794	–	–
NC(=O)c1ccccc1Nc1ccnc(Nc2cccc(O)c2)n1	–	–	1000
C/C(=N\NC(=O)c1cccc(S(=O)(=O)N2CCOCC2)c1)c1cc(Cl)ccc1O	–	–	1000
CN(CCc1ccc(Nc2ncc(-c3cccnc3)s2)cc1)Cc1ccccc1	–	44.4	12600
COc1c(C)cnc(Cn2cnc3c(Cl)nc(N)nc32)c1C	–	–	355
COC[C@H]1OC(=O)/C(=C/N(C)CCCN(C)C)C2=C(O)C(=O)C3=C([C@H](OC(C)=O)C[C@]4(C)[C@@H](O)CC[C@@H]34)[C@]21C	–	62.1	8910
COc1ccccc1OCCNCC(O)CCOc1cccc2[nH]c3ccccc3c12 (stereo unspecified)	–	16.2	10000
CN(CCCNC(=O)c1ccc2nc3c(c(Cl)c2c1)CCCC3)Cc1ccccc1	–	39.1	12600
CCc1ccc(/C=C2/SC(=S)NC2=O)cc1	–	34.2	12600
CN(C)c1cc2c(cc1Sc1nc3c(N)nccc3n1CCNCC(C)(C)C)OCO2	–	–	708
CCOc1ccc(-c2nc(-c3cccc4c3CCC4NCCO)no2)cc1OCC (stereo unspecified)	–	–	631
Cn1cc(-c2ccc(-c3cncc(Cl)c3N3CCC4(CCNC4=O)CC3)cc2)cn1	–	–	282
COc1ccc2sc(NC(c3ccc(OC(F)F)cc3)c3ccc4cccnc4c3O)nc2c1 (stereo unspecified)	891	–	708
